In patent US5382586A, “Aryl (or heteroaryl)piperazinylalkylazole derivatives, their preparation and their application as medicaments” (priority 1991, dated 1995):

Test system: mice, abstinence syndrome induced by cocaine, diazepam, alcohol or nicotine
Test: light box/dark box test: inhibition of the abstinence syndrome
Format: in vivo, mouse
Design: Time in box, dark (D) / Latent period L-D: unit not given here
Protocol: The light box/dark box test described by B. Costall et al. (J. Phar. Pharmacol., 1988, 40: 494-500) is used. The mouse is placed in the light zone of a box divided into two compartments, one brightly illuminated, the light box, and the other with little illumination, the dark box.
1) The number of times the mouse stands up on the hind paws in each compartment during a 5 minute period is counted (see Column 1 of Table V).
2) The activity in each compartment is given by counting the number of crossings through the squares which form the divisions of each compartment (see Column 2 of Table V).
3) The time passed in the dark box during the 5 minute counting period is determined (see Column 3 of Table 5).
4) The initial latent period is determined, that is to say the time which elapses after the animal is placed in the light box, at the start of the test, before it enters the dark box (see Column 4 of Table 5).
1) Dependency on a given treatment (diazepam, cocaine, alcohol or nicotine) employing daily administration over a period of 7 or 14 days.
Diazepam: 10 mg/kg i.p. twice per day over a period of 7 days.
Cocaine: 1 mg/kg i.p. over a period of 14 days.
Alcohol: Administered at 8% weight/volume in the drinking water over a period of 14 days. Nicotine: 0.1 mg/kg i.p. twice per day over a period of 7 days.
3) Other different groups receive, in addition to diazepam, cocaine, alcohol or nicotine, a concomitant treatment with products which are the subject of the present invention and, by way of comparison, with buspirone or ipsapirone.
The product described and the doses tested were: 4,5-dichloro-2-methyl-1-{4-[4-(2-pyrimidinyl)-1-piperazinyl]-butyl}-1H-imidazole citrate.
1 μg/kg p.o. twice per day.

[1] = 24 h after stopping alcohol (alone, or with the named product; Ex. 42 at 1 μg/kg p.o. twice per day)
[2] = during long-term treatment with the agent (doses as E20)
[3] = during long-term treatment with the agent (doses as E20), 5 minute counting period
[4] = during long-term treatment with the agent (doses as E20), number of crossings
[5] = 24 h after stopping cocaine (alone, or with the named product; Ex. 42 at 1 μg/kg p.o. twice per day)
[6] = during long-term treatment: cocaine 1 mg/kg i.p. 14 days, diazepam 10 mg/kg i.p. twice per day 7 days, alcohol 8% w/v drinking water 14 days, nicotine 0.1 mg/kg i.p. twice per day 7 days
[7] = 24 h after stopping diazepam (alone, or with the named product; Ex. 42 at 1 μg/kg p.o. twice per day)

| SMILES | Latent period L-D [2] | Time in box, dark (D) [3] | Activity within 5 min period, dark box (D) [4] | Activity within 5 min period, light box (L) [4] | Number of times standing erect within 5 min. period, dark box (D) (mouse, in vivo) | Number of times standing erect within 5 min. period, light box (L) (mouse, in vivo) | Number of times standing erect within 5 min. period, dark box (D) (mouse, in vivo, po) | Number of times standing erect within 5 min. period, light box (L) (mouse, in vivo, po) | Number of times standing erect within 5 min. period, dark box (D) [2] | Number of times standing erect within 5 min. period, light box (L) [6] | further results |
| --- | --- | --- | --- | --- | --- | --- | --- | --- | --- | --- | --- |
| CCO [Alcohol] | 28 | 28 | 28 | 80 | 22 | 72 | 147 | 5 |  |  | Activity within 5 min period, dark box (D) [1]: 167; Activity within 5 min period, light box (L) [1]: 6; Latent period L-D [1]: 2; Time in box, dark (D) [1]: 84 |
| COC(=O)[C@H]1[C@@H](OC(=O)c2ccccc2)C[C@@H]2CC[C@H]1N2C [Cocaine] | 18 | 30 | 30 | 68 |  |  |  |  | 38 | 60 | Activity within 5 min period, dark box (D) [5]: 149; Activity within 5 min period, light box (L) [5]: 10; Latent period L-D [5]: 2; Number of times standing erect within 5 min. period, dark box (D) [5]: 122; Number of times standing erect within 5 min. period, light box (L) [5]: 7; Time in box, dark (D) [5]: 83 |
| CN1C(=O)CN=C(c2ccccc2)c2cc(Cl)ccc21 [Diazepam] | 27 | 25 | 24 | 73 |  |  |  |  | 25 | 70 | Activity within 5 min period, dark box (D) [7]: 164; Activity within 5 min period, light box (L) [7]: 5; Latent period L-D [7]: 1.8; Number of times standing erect within 5 min. period, dark box (D) [7]: 146; Number of times standing erect within 5 min. period, light box (L) [7]: 5; Time in box, dark (D) [7]: 80 |
| CN1CCC[C@H]1c1cccnc1 [Nicotine] |  |  |  |  | 23 | 66 | 125 | 10 |  |  | Activity within 5 min period, dark box (D) (mouse, in vivo): 25; Activity within 5 min period, light box (L) (mouse, in vivo): 70; Latent period L-D (mouse, in vivo): 26; Time in box, dark (D) (mouse, in vivo): 25; Activity within 5 min period, dark box (D) (mouse, in vivo, po): 147; Activity within 5 min period, light box (L) (mouse, in vivo, po): 14; Latent period L-D (mouse, in vivo, po): 2; Time in box, dark (D) (mouse, in vivo, po): 78 |
